Experimental data reported in patent US8399681B2, “Substituted aminothiazolone indazoles as estrogen related receptor-alpha modulators” (Janssen Pharmaceutica NV, priority 2009, dated 2013).

How the values were obtained:
[1] = target: T1, ERR1 (also known as ERR-α or ERR-1) (Homo sapiens, UniProt P11474); assay: TR-FRET assay (disruption of co-activator peptide binding); type: biochemical; conditions: 6His-tagged ERR1 LBD, GST-hSRC2 co-activator polypeptide; average of 3 independent experiments
T1 sequence (P11474 193-421 limits assumed): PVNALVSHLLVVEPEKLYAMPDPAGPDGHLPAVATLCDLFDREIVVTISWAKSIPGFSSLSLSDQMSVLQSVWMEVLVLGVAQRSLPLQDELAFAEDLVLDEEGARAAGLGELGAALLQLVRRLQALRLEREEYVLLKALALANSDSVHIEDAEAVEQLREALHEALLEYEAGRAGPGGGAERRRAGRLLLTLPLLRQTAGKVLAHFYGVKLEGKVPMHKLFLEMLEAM
How it was run: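 His6-ERR1 LBD (6 nM) with GST-SRC-2 peptide (6 nM), anti-GST Eu cryptate (30 nM) and anti-His XL665 (7.5 nM) in Tris pH 8/KCl/DTT/BSA buffer, equilibrated 4-18 h at 25 °C. Ex 340, em 615/665 nm; hyperbolic dose-response fit, mean of 3 experiments.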

[2] = tested on: Zucker fa/fa male rats; assay: Zucker fa/fa Rat Model Assay; type: in vivo; conditions: dosed orally once a day for 4 days, blood collected at day 5
Description: Zucker fa/fa is a monogenic model of frank diabetes due to a mutation on the fa gene truncating the leptin receptor and preventing its interaction with its peptide hormone. This mutation results in a hyperphagic phenotype and the rodent develops obesity, hyperlipidemia, fasting hyperglycemia and insulin resistance. Zucker fa/fa male rats were received at four weeks of age and allowed to acclimate for one week. At five weeks of age the animals were single housed in cages in a temperature-controlled room with 12-hour light/dark cycle. The rats were allowed ad libitum access to water and food and throughout the study were maintained on a Purina 5008 diet. Animals were sorted based primarily on fed insulin levels and circulating triglycerides. Animals were dosed orally once a day in the morning for 4 days. The vehicle used was either 20% HPβCD (Hydroxypropyl Beta Cyclodextrin) or 15% Vitamin E/30% PEG-400 (Polyethylene Glycol 400). Fed insulin and triglycerides were measured using blood collected from the tail vein at day 5. Serum plasma samples were prepared by centrifugation in EDTA (Ethylenediaminetetraacetic acid) containing tubes, transferred into 96 well plates and stored at −80° C.

SMILES | EC50 [1] [µM] | % Lowering Fed Insulin Levels [2] [%] | % Lowering Fed Triglyceride Levels [2] [%]
O=C1N=C(N2CCC(C(=O)O)CC2)S/C1=C\c1ccc2c(cnn2Cc2ccc(C(F)(F)F)cc2C(F)(F)F)c1 [Compound 1, 1-{5-[1-(2,4-Bis-trifluoromethyl-benzyl)-1H-indazol-5-ylmethylene]-4-oxo-4,5-dihydro-thiazol-2-yl}-piperidine-4-carboxylic acid] | 0.0101 | 58 | 37
O=C1N=C(N2CC(C(=O)O)C2)S/C1=C\c1ccc2c(cnn2Cc2ccc(C(F)(F)F)cc2C(F)(F)F)c1 [Example 35, 1-{5-[1-(2,4-Bis-trifluoromethyl-benzyl)-1H-indazol-5-ylmethylene]-4-oxo-4,5-dihydro-thiazol-2-yl}-azetidine-3-carboxylic acid] | 0.0143 | 45 | 20
O=C1N=C(N2CCC(C(=O)O)CC2)S/C1=C\c1ccc2c(cnn2Cc2ccc(Cl)cc2C(F)(F)F)c1 [Example 39, 1-{5-[1-(4-Chloro-2-trifluoromethyl-benzyl)-1H-indazol-5-ylmethylene]-4-oxo-4,5-dihydro-thiazol-2-yl}-piperidine-4-carboxylic acid] | 0.0032 | 58 | 35
O=C1N=C(N2CC(C(=O)O)C2)S/C1=C\c1ccc2c(cnn2Cc2ccc(Cl)cc2C(F)(F)F)c1 [Example 40, 1-{5-[1-(4-Chloro-2-trifluoromethyl-benzyl)-1H-indazol-5-ylmethylene]-4-oxo-4,5-dihydro-thiazol-2-yl}-azetidine-3-carboxylic acid] | 0.008 | 75 | 60
N[C@H]1CCCN(C2=NC(=O)/C(=C/c3ccc4c(cnn4Cc4ccc(C(F)(F)F)cc4C(F)(F)F)c3)S2)C1 [Example 52, 2-(3-(S)-Amino-piperidin-1-yl)-5-[1-(2,4-bis-trifluoromethyl-benzyl)-1H-indazol-5-ylmethylene]-thiazol-4-one] | 0.0045 | 86 | 55
O=C1N=C(N2CCCNCC2)S/C1=C\c1ccc2c(cnn2Cc2ccc(Cl)cc2C(F)(F)F)c1 [Example 54, 5-[1-(4-Chloro-2-trifluoromethyl-benzyl)-1H-indazol-5-ylmethylene]-2-[1,4]diazepan-1-yl-thiazol-4-one] | 0.0131 | 60 | 27
COCCN1CCN(C2=NC(=O)/C(=C/c3ccc4c(cnn4Cc4ccc(Cl)cc4C(F)(F)F)c3)S2)CC1 [Example 56, 5-[1-(4-Chloro-2-trifluoromethyl-benzyl)-1H-indazol-5-ylmethylene]-2-[4-(2-methoxy-ethyl)-piperazin-1-yl]-thiazol-4-one] | 0.0157 | 70 | 68
N[C@@H]1CCN(C2=NC(=O)/C(=C/c3ccc4c(cnn4Cc4ccc(Cl)cc4C(F)(F)F)c3)S2)C1 [Example 62, 2-(3-(R)-Amino-pyrrolidin-1-yl)-5-[1-(4-chloro-2-trifluoromethyl-benzyl)-1H-indazol-5-ylmethylene]-thiazol-4-one] | 0.0173 | 48 | 36
O=C1N=C(N2CCC[C@H]2CN2CCCC2)S/C1=C\c1ccc2c(cnn2Cc2ccc(Cl)cc2C(F)(F)F)c1 [Example 64, 5-[1-(4-Chloro-2-trifluoromethyl-benzyl)-1H-indazol-5-ylmethylene]-2-(S)-(2-pyrrolidin-1-ylmethyl-pyrrolidin-1-yl)-thiazol-4-one] | 0.025 | 46 | 51
NC(=O)C1CN(C2=NC(=O)/C(=C/c3ccc4c(cnn4Cc4ccc(C(F)(F)F)cc4C(F)(F)F)c3)S2)CCN1 (stereo not drawn) [Example 274, 4-[5-({1-[2,4-Bis(trifluoromethyl)benzyl]-1H-indazol-5-yl}methylidene)-4-oxo-4,5-dihydro-1,3-thiazol-2-yl]piperazine-2-carboxamide] | 0.008 | – | –
C=C(C)c1ccc(Cn2ncc3cc(/C=C4\SC(N5CCO[C@@H](CO)C5)=NC4=O)ccc32)c(C(F)(F)F)c1 [Example 275, 2-[(2R)-2-(Hydroxymethyl)morpholin-4-yl]-5-({1-[4-(1-methylethenyl)-2-(trifluoromethyl)benzyl]-1H-indazol-5-yl}methylidene)-1,3-thiazol-4(5H)-one] | 0.011 | – | –
Cc1nn(Cc2ccc(Cl)cc2C(F)(F)F)c2ccc(/C=C3\SC(N4CCC(C(=O)O)CC4)=NC3=O)cc12 [Example 276, 1-[5-({1-[4-Chloro-2-(trifluoromethyl)benzyl]-3-methyl-1H-indazol-5-yl}methylidene)-4-oxo-4,5-dihydro-1,3-thiazol-2-yl]piperidine-4-carboxylic acid] | 0.024 | – | –
Cc1nn(Cc2ccc(Cl)cc2C(F)(F)F)c2ccc(/C=C3\SC(N4CCN[C@H](CO)C4)=NC3=O)cc12 [Example 277, 5-({1-[4-Chloro-2-(trifluoromethyl)benzyl]-3-methyl-1H-indazol-5-yl}methylidene)-2-[(3S)-3-(hydroxymethyl)piperazin-1-yl]-1,3-thiazol-4(5H)-one] | 0.009 | – | –
Cc1nn(Cc2ccc(Cl)cc2C(F)(F)F)c2ccc(/C=C3\SC(N4CCN(C)C(C)(C)C4)=NC3=O)cc12 [Example 278, 5-({1-[4-Chloro-2-(trifluoromethyl)benzyl]-3-methyl-1H-indazol-5-yl}methylidene)-2-(3,3,4-trimethylpiperazin-1-yl)-1,3-thiazol-4(5H)-one] | 0.017 | – | –
CC(C)(C)OC(=O)N1CCN(C2=NC(=O)/C(=C/c3ccc4c(c3)c(I)nn4Cc3ccc(C(F)(F)F)cc3C(F)(F)F)S2)C[C@@H]1CO [Example 279, tert-Butyl (2R)-4-[5-({1-[2,4-bis(trifluoromethyl)benzyl]-3-iodo-1H-indazol-5-yl}methylidene)-4-oxo-4,5-dihydro-1,3-thiazol-2-yl]-2-(hydroxymethyl)piperazine-1-carboxylate] | 0.011 | – | –
CC(=O)OC[C@@H]1CN(C2=NC(=O)/C(=C/c3ccc4c(cnn4Cc4ccc(C(F)(F)F)cc4C(F)(F)F)c3)S2)CCO1 [Example 280, {(2S)-4-[5-({1-[2,4-Bis(trifluoromethyl)benzyl]-1H-indazol-5-yl}methylidene)-4-oxo-4,5-dihydro-1,3-thiazol-2-yl]morpholin-2-yl}methyl acetate] | 0.003 | – | –
O=C1N=C(N2CCO[C@H](CO)C2)S/C1=C\c1ccc2c(cnn2Cc2ncccc2C(F)(F)F)c1 [Example 281, 2-[(2S)-2-(Hydroxymethyl)morpholin-4-yl]-5-[(1-{[3-(trifluoromethyl)pyridin-2-yl]methyl}-1H-indazol-5-yl)methylidene]-1,3-thiazol-4(5H)-one] | 0.59 | – | –
COC(=O)CNC(=O)[C@@H]1CN(C2=NC(=O)/C(=C/c3ccc4c(cnn4Cc4ccc(C(F)(F)F)cc4C(F)(F)F)c3)S2)CCO1 [Example 282, Methyl N-({(2S)-4-[5-({1-[2,4-bis(trifluoromethyl)benzyl]-1H-indazol-5-yl}methylidene)-4-oxo-4,5-dihydro-1,3-thiazol-2-yl]morpholin-2-yl}carbonyl)glycinate] | > 4 | – | –
